Patent US20140179664A1, “Heterocyclyl Pyrimidine Analogues As JAK Inhibitors” (Cellzome Limited, priority 2011, published 2014)

Columns and labels:
Assay type in all cases: binding
JAK2 = molecular target: T1, JAK2 (Homo sapiens, UniProt O60674); assay: Kinobeads assay, JAK2; conditions: mixed Molt4/Ramos lysate, read-out: Inhibition values (IC50) JAK2
T1 construct: endogenous in cells; host or cells: Molt4 (ATCC CRL-1582) and Ramos (ATCC CRL-1596), mixed lysate 1:2
In short: (§1)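 IC50s come from capture competition: compound at various concentrations versus an immobilized aminopyrido-pyrimidine ligand for kinases in 1:2 Molt4/Ramos lysate (10 mg/mL), 3 h in a cold room. Captured JAK-family kinases were measured by specific-antibody dot blot with Odyssey infrared detection.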

JAK3 = molecular target: T2, JAK3 (Homo sapiens, UniProt P52333); assay: Kinobeads assay, JAK3; conditions: mixed Molt4/Ramos lysate, read-out: Inhibition values (IC50) JAK3
T2 construct: endogenous in cells; host or cells: Molt4 (ATCC CRL-1582) and Ramos (ATCC CRL-1596), mixed lysate 1:2
T2 sequence (P52333 1-1124): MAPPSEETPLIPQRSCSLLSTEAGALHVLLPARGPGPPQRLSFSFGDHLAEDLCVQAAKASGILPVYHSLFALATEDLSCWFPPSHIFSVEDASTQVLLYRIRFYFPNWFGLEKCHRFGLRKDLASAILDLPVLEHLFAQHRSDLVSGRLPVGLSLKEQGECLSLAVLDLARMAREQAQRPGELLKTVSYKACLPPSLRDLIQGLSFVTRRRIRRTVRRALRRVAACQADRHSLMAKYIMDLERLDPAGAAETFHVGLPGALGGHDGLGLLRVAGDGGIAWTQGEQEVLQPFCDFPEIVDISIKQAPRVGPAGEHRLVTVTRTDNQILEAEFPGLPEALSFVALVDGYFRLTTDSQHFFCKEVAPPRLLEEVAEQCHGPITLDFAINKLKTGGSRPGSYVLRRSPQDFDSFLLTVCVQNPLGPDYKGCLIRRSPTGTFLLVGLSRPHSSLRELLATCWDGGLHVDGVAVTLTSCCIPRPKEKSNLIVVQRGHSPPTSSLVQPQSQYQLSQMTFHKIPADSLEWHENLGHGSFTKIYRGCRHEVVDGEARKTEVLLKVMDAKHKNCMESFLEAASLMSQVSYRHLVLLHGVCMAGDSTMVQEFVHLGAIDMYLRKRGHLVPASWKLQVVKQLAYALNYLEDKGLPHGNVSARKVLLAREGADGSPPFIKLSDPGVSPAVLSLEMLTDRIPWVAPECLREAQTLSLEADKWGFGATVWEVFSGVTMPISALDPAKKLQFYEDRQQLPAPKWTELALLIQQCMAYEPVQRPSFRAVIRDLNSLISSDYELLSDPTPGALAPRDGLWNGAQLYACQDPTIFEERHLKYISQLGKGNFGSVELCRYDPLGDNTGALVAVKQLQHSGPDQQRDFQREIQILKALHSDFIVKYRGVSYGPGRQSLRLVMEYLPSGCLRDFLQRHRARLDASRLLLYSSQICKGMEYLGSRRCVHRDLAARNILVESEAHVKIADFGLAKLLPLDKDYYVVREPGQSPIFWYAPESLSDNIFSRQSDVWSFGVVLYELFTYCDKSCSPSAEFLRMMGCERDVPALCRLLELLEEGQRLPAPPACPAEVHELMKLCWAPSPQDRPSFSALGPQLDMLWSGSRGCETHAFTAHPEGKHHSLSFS
In short: as §1

TYK2 = molecular target: T3, TYK2 (Homo sapiens, UniProt P29597); assay: Kinobeads assay, TYK2; conditions: mixed Molt4/Ramos lysate, read-out: Inhibition values (IC50) TYK2
T3 construct: endogenous in cells; host or cells: Molt4 (ATCC CRL-1582) and Ramos (ATCC CRL-1596), mixed lysate 1:2
T3 sequence (P29597 whole entry): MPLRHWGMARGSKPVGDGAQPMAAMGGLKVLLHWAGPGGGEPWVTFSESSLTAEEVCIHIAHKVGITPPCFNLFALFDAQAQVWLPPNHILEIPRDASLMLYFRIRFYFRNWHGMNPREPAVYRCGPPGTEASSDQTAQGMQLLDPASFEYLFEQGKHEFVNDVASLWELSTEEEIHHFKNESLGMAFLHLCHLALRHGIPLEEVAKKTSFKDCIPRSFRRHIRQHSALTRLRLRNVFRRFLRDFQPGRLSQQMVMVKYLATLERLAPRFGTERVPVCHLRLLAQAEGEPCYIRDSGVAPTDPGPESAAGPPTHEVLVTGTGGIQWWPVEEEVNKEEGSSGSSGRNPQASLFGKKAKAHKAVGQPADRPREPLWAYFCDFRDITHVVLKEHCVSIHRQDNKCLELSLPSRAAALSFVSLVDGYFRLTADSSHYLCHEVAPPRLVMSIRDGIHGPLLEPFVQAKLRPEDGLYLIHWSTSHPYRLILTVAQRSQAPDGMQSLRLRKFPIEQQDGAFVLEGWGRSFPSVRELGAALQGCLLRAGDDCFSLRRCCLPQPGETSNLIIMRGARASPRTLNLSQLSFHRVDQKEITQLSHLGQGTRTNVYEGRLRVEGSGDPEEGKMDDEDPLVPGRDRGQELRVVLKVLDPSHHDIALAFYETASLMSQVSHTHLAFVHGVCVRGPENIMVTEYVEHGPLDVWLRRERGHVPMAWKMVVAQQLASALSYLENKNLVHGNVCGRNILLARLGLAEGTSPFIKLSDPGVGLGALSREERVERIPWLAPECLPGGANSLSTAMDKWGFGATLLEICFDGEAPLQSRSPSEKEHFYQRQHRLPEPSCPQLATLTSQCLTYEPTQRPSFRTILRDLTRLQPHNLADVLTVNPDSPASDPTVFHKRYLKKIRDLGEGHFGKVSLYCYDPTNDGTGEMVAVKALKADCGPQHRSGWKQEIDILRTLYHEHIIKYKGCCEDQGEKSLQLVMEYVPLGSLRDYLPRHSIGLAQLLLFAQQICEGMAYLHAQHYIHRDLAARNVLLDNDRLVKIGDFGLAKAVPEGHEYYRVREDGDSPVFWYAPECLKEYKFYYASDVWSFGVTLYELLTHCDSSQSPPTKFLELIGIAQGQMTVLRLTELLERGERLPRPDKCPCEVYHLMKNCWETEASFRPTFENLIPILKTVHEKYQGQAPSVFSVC
In short: as §1

T1 sequence (O60674 whole entry): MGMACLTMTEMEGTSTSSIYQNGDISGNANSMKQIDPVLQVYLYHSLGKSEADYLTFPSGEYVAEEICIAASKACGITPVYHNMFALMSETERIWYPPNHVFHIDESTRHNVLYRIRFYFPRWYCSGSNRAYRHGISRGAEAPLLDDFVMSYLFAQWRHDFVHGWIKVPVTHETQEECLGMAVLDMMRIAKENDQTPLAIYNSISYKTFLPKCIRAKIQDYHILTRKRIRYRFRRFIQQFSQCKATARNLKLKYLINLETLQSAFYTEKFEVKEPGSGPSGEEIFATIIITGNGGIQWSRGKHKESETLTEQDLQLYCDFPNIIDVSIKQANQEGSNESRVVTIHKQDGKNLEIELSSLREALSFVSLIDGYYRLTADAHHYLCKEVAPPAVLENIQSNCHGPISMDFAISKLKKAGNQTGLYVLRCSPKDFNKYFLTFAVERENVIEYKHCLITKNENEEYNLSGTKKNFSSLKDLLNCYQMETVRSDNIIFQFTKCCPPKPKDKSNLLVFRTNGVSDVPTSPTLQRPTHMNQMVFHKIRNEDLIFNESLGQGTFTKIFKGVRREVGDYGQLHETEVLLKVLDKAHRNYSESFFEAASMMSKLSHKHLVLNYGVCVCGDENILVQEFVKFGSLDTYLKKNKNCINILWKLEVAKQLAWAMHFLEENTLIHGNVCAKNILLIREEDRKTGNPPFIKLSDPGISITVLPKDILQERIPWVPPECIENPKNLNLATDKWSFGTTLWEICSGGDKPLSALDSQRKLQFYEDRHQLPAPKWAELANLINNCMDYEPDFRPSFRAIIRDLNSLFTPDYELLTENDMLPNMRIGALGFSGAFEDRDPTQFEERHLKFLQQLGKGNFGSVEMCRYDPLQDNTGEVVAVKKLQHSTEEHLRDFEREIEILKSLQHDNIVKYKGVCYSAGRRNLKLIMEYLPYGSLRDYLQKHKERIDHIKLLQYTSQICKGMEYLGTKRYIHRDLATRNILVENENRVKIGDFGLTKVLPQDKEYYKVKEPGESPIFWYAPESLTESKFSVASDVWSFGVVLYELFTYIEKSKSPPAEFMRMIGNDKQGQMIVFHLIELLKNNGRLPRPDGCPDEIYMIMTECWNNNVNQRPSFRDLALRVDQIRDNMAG

Work on `OCCn1ccc(Nc2ncc(Cl)c(NC(CO)c3ccccc3F)n2)n1` (stereo not drawn) [Compound 50] yielded an IC50 (JAK2) of at least 10000 nM, an IC50 (JAK3) of 100 to 1000 nM and an IC50 (TYK2) of at least 10000 nM.
`OCCn1ccc(Nc2ncc(Cl)c(NC(CO)c3cccc(F)c3)n2)n1` (stereo not drawn) [Compound 41] gave an IC50 (JAK2) of at least 10000 nM, an IC50 (JAK3) of 100 to 1000 nM and an IC50 (TYK2) of at least 10000 nM.
`COCCNC(=O)[C@@H](Nc1nc(Nc2cnn(C)c2)ncc1Cl)c1ccccc1` [Compound 29] gave an IC50 (JAK2) of 1000 to 10000 nM, an IC50 (JAK3) of under 100 nM and an IC50 (TYK2) of 1000 to 10000 nM.
For `Cc1cnc(Nc2cnn(CC(F)F)c2)nc1N[C@H](CO)c1cc(F)cc(F)c1` [Compound 167], the IC50 (JAK2) was 1000 to 10000 nM, the IC50 (JAK3) was 100 to 1000 nM and the IC50 (TYK2) was 1000 to 10000 nM.
`Cn1cc(Nc2ncc(Cl)c(NC(CO)c3cccc(-c4cnn(C)c4)c3)n2)cn1` (stereo not drawn) [Compound 69] showed an IC50 (JAK2) of at least 10000 nM, an IC50 (JAK3) of 100 to 1000 nM and an IC50 (TYK2) of at least 10000 nM.
`CNC(=O)[C@@H](Nc1nc(Nc2cnn(C)c2)ncc1Cl)c1ccccc1` [Compound 20] gave an IC50 (JAK2) of at least 10000 nM, an IC50 (JAK3) of 100 to 1000 nM and an IC50 (TYK2) of 1000 to 10000 nM.
`CC(C)(O)Cn1cc(Nc2ncc(Cl)c(NC(CO)c3ccccc3F)n2)cn1` (stereo not drawn) [Compound 57] was tested, and the IC50 (JAK2) was at least 10000 nM, the IC50 (JAK3) was under 100 nM and the IC50 (TYK2) was 1000 to 10000 nM.
`COc1cccc([C@@H](CO)Nc2nc(Nc3cnn(C)c3)ncc2Cl)c1` [Compound 82] was tested, and the IC50 (JAK2) was at least 10000 nM, the IC50 (JAK3) was under 100 nM and the IC50 (TYK2) was 1000 to 10000 nM.
`COc1ccccc1[C@@H](CO)Nc1nc(Nc2cnn(CCO)c2)ncc1Cl` [Compound 76] showed an IC50 (JAK2) of 1000 to 10000 nM, an IC50 (JAK3) of under 100 nM and an IC50 (TYK2) of 100 to 1000 nM.
Work on `OCCn1ccc(Nc2ncc(Cl)c(NC(CO)c3c(F)cccc3F)n2)n1` (stereo not drawn) [Compound 45] yielded an IC50 (JAK2) of at least 10000 nM, an IC50 (JAK3) of 100 to 1000 nM and an IC50 (TYK2) of 1000 to 10000 nM.
In the case of `Cn1cc(Nc2ncc(Cl)c(N[C@H](CO)c3ccccc3F)n2)cn1` [Compound 58], the IC50 (JAK2) is reported as 1000 to 10000 nM, the IC50 (JAK3) is reported as under 100 nM and the IC50 (TYK2) is reported as 1000 to 10000 nM.
With `CC(C)(O)Cn1cc(Nc2ncc(Cl)c(NC(CO)c3cccc(F)c3)n2)cn1` (stereo not drawn) [Compound 61] the IC50 (JAK2) was 1000 to 10000 nM, the IC50 (JAK3) was under 100 nM and the IC50 (TYK2) was 1000 to 10000 nM.
`Cc1cnc(Nc2cnn(CCO)c2)nc1NC(CO)c1ccccc1` (stereo not drawn) [Compound 12] gave an IC50 (JAK2) of at least 10000 nM, an IC50 (JAK3) of 100 to 1000 nM and an IC50 (TYK2) of 1000 to 10000 nM.
With `NC(=O)Cn1cc(Nc2ncc(Cl)c(N[C@H](CO)c3ccccn3)n2)cn1` [Compound 81] the IC50 (JAK2) was 1000 to 10000 nM, the IC50 (JAK3) was under 100 nM and the IC50 (TYK2) was 100 to 1000 nM.
`NC(=O)Cn1cc(Nc2ncc(Cl)c(N[C@H](CO)c3ccccc3)n2)cn1` [Compound 56] gave an IC50 (JAK2) of 1000 to 10000 nM, an IC50 (JAK3) of under 100 nM and an IC50 (TYK2) of 100 to 1000 nM.
For `Cn1cc(Nc2ncc(Cl)c(NC(CO)c3ccc(F)cc3)n2)cn1` (stereo not drawn) [Compound 71], the IC50 (JAK2) was at least 10000 nM, the IC50 (JAK3) was 100 to 1000 nM and the IC50 (TYK2) was 1000 to 10000 nM.
`COc1ccccc1[C@@H](CO)Nc1nc(Nc2cnn(C)c2)ncc1Cl` [Compound 74] was tested, and the IC50 (JAK2) was 1000 to 10000 nM, the IC50 (JAK3) was under 100 nM and the IC50 (TYK2) was 1000 to 10000 nM.
Compound `OCCn1cc(Nc2ncc(Cl)c(NC(CO)Cc3ccccc3)n2)cn1` (stereo not drawn) [Compound 19] has an IC50 (JAK2) of 1000 to 10000 nM, an IC50 (JAK3) of under 100 nM and an IC50 (TYK2) of 1000 to 10000 nM.
For `Cn1cc(Nc2ncc(Cl)c(NC(CO)c3cccc(F)c3)n2)cn1` (stereo not drawn) [Compound 40], the IC50 (JAK2) was 1000 to 10000 nM, the IC50 (JAK3) was under 100 nM and the IC50 (TYK2) was 1000 to 10000 nM.
`CNC(=O)Cn1cc(Nc2ncc(Cl)c(N[C@H](CO)c3ccccc3)n2)cn1` [Compound 23, (S)-2-(4-((5-chloro-4-((2-hydroxy-1-phenylethyl)amino)pyrimidin-2-yl)amino)-1H-pyrazol-1-yl)-N-methylacetamide] gave an IC50 (JAK2) of 1000 to 10000 nM, an IC50 (JAK3) of under 100 nM and an IC50 (TYK2) of 1000 to 10000 nM.
Compound `OCCn1cc(Nc2ncc(Cl)c(NC(CO)c3ccccc3F)n2)cn1` (stereo not drawn) [Compound 36] has an IC50 (JAK2) of 1000 to 10000 nM, an IC50 (JAK3) of under 100 nM and an IC50 (TYK2) of 100 to 1000 nM.
In the case of `CN(C)C(=O)[C@@H](Nc1nc(Nc2cnn(CCO)c2)ncc1Cl)c1ccccc1` [Compound 26], the IC50 (JAK2) is reported as 1000 to 10000 nM, the IC50 (JAK3) is reported as under 100 nM and the IC50 (TYK2) is reported as 1000 to 10000 nM.
`OCCn1cc(Nc2ncc(Cl)c(N[C@@H](CO)c3ccccc3)n2)cn1` [Compound 63] was tested, and the IC50 (JAK2) was at least 10000 nM, the IC50 (JAK3) was 1000 to 10000 nM and the IC50 (TYK2) was 1000 to 10000 nM.
